Patent US12643867B2, “Compositions and uses thereof” (University of Virginia Patent Foundation, priority 2017, dated 2026)

Experiments:
Test in all cases: SILAC LC-MS ATP acyl phosphate probe competition, native kinases in HEK293T
Format in all cases: binding
[1] = target: T1, BRAF (B-Raf proto-oncogene serine/threonine-protein kinase) (Homo sapiens, UniProt P15056); conditions: site Lys2; ATP 1 mM; Ketanserin, Ritanserin 100 μM; RF001 1 mM
T1 construct: measured against >50 native kinases quantified in HEK293T soluble proteomes; endogenous in cells; host or cells: HEK293T soluble proteome
Procedure: (§1) Proteomes were diluted to 2 mg/ml in kinase buffer. The light and heavy proteomes (0.5 mg, 250 μL total reaction volume) were pre-treated with vehicle or compound, respectively (5 μL, DMSO (light) or 50× stock in DMSO (heavy)), mixed gently, and incubated at 25° C. for 30 min. […] After incubation, matched light and heavy proteomes were transferred and mixed in a 1:1 ratio in a two-dram vial containing 4:1:3 MeOH/CHCl3/H2O (2 mL MeOH, 500 AL CHCl3, 1.5 mL H2O) for extraction of proteins to remove excess probe, quickly vortexed, and centrifuged at 1,400×g for 3 min to pellet protein. Organic and aqueous layers were removed using a Pasteur pipette, and the protein pellet was transferred to a screw-top tube in 600 μL MeOH. A second extraction was performed by adding CHCl3 (150 μL) and H2O (600 μL) to each sample, vortexed, and centrifuged at 1,400×g for 3 min to pellet protein. Organic and aqueous layers were removed by pipetting. MeOH added to pellet (600 μL) and pellets were re-suspended by sonication (3×1 sec pulse, 20% amplitude) for a final extraction. Samples were then centrifuged at 17,000×g for 5 min to pellet protein and MeOH was removed by pipetting. The pellets were re-suspended in 10 M urea/25 mM ammonium bicarbonate ([…]), brought to a final volume of 1 mL with 25 mM ammonium bicarbonate, reduced with 10 mM DTT for 15 min at 65° C. allowed to cool, and then alkylated with 40 mM iodoacetamide for 30 min at 25° C. in the dark. To desalt the samples, each was transferred to a two-dram glass vial, and to the vial 4:1:2 MeOH/CHCl3/H2O (2 mL MeOH, 500 AL CHCl3, 1 mL H2O) was added. The vials were vortexed quickly, spun at 1.400×g for 3 min to pellet protein, and aqueous and organic layers were removed using a Pasteur pipette. The resulting protein pellet was transferred to a screw-top tube in 600 μL MeOH, and then CHCl3 (150 μL) and HO (600 μL) were added to extract protein a second time. The samples were vortexed quickly, centrifuged at 1,400×g to pellet protein, and the aqueous and organic layers were removed by pipetting. Resulting protein pellet was suspended in MeOH (600 μL) via sonication (3×1 sec pulse, 20% amplitude), centrifuged at 17,000×g for 5 min to pellet protein, and MeOH removed by pipetting. Protein pellets were then re-suspended in 25 mM ammonium bicarbonate (500 μL) and digested with 7.5 μg Trypsin/Lys-C(Promega, 15 μL, 0.5 μg/μL) for 3 h at 37° C. Avidin-agarose beads (Thermo Scientific Pierce, 100 AL aliquot per sample) were washed three times by adding 10 mL DPBS, centrifuged at 1,400×g for 1 min, and decanting. This wash step was repeated for a total of 3 times. Digested protein samples were mixed with washed avidin beads (100 μL) and brought to a volume of 5.5 mL with DPBS in a 15 mL conical and rotated for 1 h to enrich samples for the covalent desthiobiotin modification. The beads were washed with 25 mM ammonium bicarbonate (3× with 10 mL, centrifuge at 1,400×g for 3 min, decant) and then H2O (3× with 10 mL, centrifuge at 1,400×g for 3 min, decant). Washed beads were then transferred to a low-bind microfuge tube, centrifuged at 1,400×g for 3 min, allowed to rest for 1 min to settle beads, and then excess H2O was removed carefully using a gel-loading pipette tip. To elute peptides, 100 μL of elution buffer (50% acetonitrile, ACN; 0.1% formic acid) was added to each sample and incubated for 3 min. Beads were spun down at 1.400×g for 3 min, allowed to rest for 1 min to settle beads, and then 75 μL of peptide-containing supernatant was removed carefully using a gel-loading pipette tip and transferred to a new low bind centrifuge tube. This step was repeated two more times with 75 μL of elution buffer and all eluent were collected into the same centrifuge tube (˜225 μL total). Peptides were dried on a speed vacuum, resulting peptide samples acidified in 5% (v/v) formic acid, and stored at −80° C. until analysis.
(§2) The peptide samples were analyzed by liquid chromatography-mass spectrometry. […]

[2] = target: T2, CDK1 (Cell division control protein 2 homolog) (Homo sapiens, UniProt P06493); conditions: site Lys2; ATP 1 mM; Ketanserin, Ritanserin 100 μM; RF001 1 mM
T2 construct: measured against >50 native kinases quantified in HEK293T soluble proteomes; endogenous in cells; host or cells: HEK293T soluble proteome
Procedure: as §1, §2

[3] = target: T3, MP2K6 (Dual specificity mitogen-activated protein kinase kinase 6) (Homo sapiens, UniProt P52564); conditions: site Lys1; ATP 1 mM; Ketanserin, Ritanserin 100 μM; RF001 1 mM
T3 construct: Native kinases; endogenous in cells; host or cells: HEK293T soluble proteome
T3 sequence (P52564 1-334): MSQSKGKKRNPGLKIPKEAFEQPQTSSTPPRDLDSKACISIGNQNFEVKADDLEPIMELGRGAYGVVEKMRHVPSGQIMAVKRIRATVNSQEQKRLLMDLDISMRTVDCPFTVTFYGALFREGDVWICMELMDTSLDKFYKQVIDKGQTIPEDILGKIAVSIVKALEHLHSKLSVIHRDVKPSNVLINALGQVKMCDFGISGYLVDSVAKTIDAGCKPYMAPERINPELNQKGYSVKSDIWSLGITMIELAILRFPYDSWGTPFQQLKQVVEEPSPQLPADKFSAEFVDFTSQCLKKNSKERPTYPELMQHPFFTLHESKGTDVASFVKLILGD
Procedure: as §1, §2

[4] = target: T4, NEK3 (Serine/threonine-protein kinase Nek3) (Homo sapiens, UniProt P51956); conditions: site ACT; ATP 1 mM; Ketanserin, Ritanserin 100 μM; RF001 1 mM
T4 construct: Native kinases; endogenous in cells; host or cells: HEK293T soluble proteome
T4 sequence (P51956 1-506): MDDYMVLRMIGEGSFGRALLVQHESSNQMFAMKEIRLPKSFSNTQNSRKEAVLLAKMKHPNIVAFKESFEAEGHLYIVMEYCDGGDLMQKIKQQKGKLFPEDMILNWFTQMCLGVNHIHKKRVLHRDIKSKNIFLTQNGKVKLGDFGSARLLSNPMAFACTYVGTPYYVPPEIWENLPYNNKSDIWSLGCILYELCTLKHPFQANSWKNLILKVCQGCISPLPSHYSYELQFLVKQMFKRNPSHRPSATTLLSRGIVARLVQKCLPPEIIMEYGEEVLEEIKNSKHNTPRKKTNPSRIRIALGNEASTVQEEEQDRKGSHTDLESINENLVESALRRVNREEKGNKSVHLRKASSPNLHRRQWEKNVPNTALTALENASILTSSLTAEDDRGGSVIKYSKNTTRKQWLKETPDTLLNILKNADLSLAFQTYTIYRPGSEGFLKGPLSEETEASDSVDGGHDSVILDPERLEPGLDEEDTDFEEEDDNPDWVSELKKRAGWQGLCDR
Procedure: as §1, §2

T1 sequence (P15056 whole entry): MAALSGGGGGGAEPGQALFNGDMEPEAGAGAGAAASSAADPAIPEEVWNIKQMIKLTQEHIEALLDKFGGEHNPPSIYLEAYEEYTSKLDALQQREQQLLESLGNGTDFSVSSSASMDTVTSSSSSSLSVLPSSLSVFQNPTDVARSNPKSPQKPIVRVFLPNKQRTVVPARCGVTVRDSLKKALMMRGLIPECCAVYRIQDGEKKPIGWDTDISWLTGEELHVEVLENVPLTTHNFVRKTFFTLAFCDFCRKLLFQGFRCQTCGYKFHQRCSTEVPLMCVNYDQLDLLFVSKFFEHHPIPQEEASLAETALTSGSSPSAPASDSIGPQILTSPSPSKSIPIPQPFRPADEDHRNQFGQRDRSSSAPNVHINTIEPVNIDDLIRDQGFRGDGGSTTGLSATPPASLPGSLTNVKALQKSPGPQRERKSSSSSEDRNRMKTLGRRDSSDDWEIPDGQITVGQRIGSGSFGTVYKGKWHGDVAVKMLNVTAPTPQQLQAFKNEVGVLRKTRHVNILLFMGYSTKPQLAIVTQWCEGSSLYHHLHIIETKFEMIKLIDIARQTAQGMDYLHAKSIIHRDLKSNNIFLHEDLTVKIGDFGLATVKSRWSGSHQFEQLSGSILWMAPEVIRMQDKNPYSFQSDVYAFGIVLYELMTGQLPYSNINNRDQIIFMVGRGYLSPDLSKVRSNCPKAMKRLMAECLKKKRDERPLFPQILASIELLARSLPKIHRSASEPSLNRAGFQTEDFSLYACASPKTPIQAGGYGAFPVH
T2 sequence (P06493 whole entry): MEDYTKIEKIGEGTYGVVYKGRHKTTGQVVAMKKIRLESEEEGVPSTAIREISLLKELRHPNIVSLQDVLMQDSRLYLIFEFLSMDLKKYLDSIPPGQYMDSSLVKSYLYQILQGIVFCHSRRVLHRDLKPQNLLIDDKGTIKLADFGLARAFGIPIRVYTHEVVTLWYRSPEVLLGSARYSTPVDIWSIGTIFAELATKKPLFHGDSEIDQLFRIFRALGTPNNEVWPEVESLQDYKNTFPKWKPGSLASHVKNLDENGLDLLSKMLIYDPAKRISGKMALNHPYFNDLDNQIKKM

SILAC ratio, BRAF probe-modified peptide [1]	SILAC ratio, CDK1 probe-modified peptide [2]	SILAC ratio, MP2K6 probe-modified peptide [3]	SILAC ratio, NEK3 probe-modified peptide [4]	SMILES
1.6	1.4	1.4	1.0	O=C(c1ccc(F)cc1)C1CCN(CCn2c(=O)[nH]c3ccccc3c2=O)CC1 [Ketanserin]
1.1	1.1	1.1	1.0	Fc1ccc(C(=C2CCNCC2)c2ccc(F)cc2)cc1 [RF001, 4-(Bis(4-fluorophenyl)methylene) piperidine]

SMILES	SILAC ratio, BRAF probe-modified peptide [1]	SILAC ratio, CDK1 probe-modified peptide [2]	SILAC ratio, MP2K6 probe-modified peptide [3]	SILAC ratio, NEK3 probe-modified peptide [4]
Cc1nc2sccn2c(=O)c1CCN1CCC(=C(c2ccc(F)cc2)c2ccc(F)cc2)CC1 [Ritanserin]	1.8	2.4	2.2	2.2
